Test results taken from PubChem BioAssay AID1259407 (Chemical Carcinogenesis Research Information System (CCRIS), 2018).
Calls of active or inactive are those of the source. How the calls were made is not given here.

Tested on: CCRIS mutagenicity, Ames/micronucleus/aberration tests
Assay: CCRIS mutagenicity studies

COS(C)(=O)=O
mutagenic call (Test System: CHO/HGPRT, Strain/Indicator: CHO-K1-BH4, Metabolic Activation: NONE, Method: STANDARD PLATE): active; positive | mutagenic call (Test System: E. COLI, Strain/Indicator: TK701 (PKM101), Metabolic Activation: NONE, Method: STANDARD PLATE): active; positive | mutagenic call (Test System: E. COLI, Strain/Indicator: TK701, Metabolic Activation: NONE, Method: STANDARD PLATE): active; positive | mutagenic call (Test System: E. COLI, Strain/Indicator: TK702 (PKM101), Metabolic Activation: NONE, Method: STANDARD PLATE): active; positive | mutagenic call (Test System: E. COLI, Strain/Indicator: TK702, Metabolic Activation: NONE, Method: STANDARD PLATE): inactive; negative | mutagenic call (Test System: E. COLI, Strain/Indicator: WP2, Metabolic Activation: NONE, Method: FLUCTUATION): active; positive | mutagenic call (Test System: E. COLI, Strain/Indicator: WP2, Metabolic Activation: NONE, Method: PREINCUBATION): active; positive | mutagenic call (Test System: E. COLI, Strain/Indicator: WP2, Metabolic Activation: NONE, Method: STANDARD PLATE): active; positive | mutagenic call (Test System: E. COLI, Strain/Indicator: WP2 UVRA, Metabolic Activation: HAMSTER, LIVER, S-9, AROCLOR 1254, Method: STANDARD PLATE): active; positive | mutagenic call (Test System: E. COLI, Strain/Indicator: WP2 UVRA, Metabolic Activation: HAMSTER, LIVER, S-9, Method: STANDARD PLATE): active; positive | mutagenic call (Test System: E. COLI, Strain/Indicator: WP2 UVRA, Metabolic Activation: MOUSE, LIVER, S-9, AROCLOR 1254, Method: STANDARD PLATE): active; positive | mutagenic call (Test System: E. COLI, Strain/Indicator: WP2 UVRA, Metabolic Activation: MOUSE, LIVER, S-9, Method: STANDARD PLATE): active; positive | mutagenic call (Test System: E. COLI, Strain/Indicator: WP2 UVRA, Metabolic Activation: NONE, Method: FLUCTUATION): active; positive | mutagenic call (Test System: E. COLI, Strain/Indicator: WP2 UVRA, Metabolic Activation: NONE, Method: PREINCUBATION): active; positive | mutagenic call (Test System: E. COLI, Strain/Indicator: WP2 UVRA, Metabolic Activation: RAT, LIVER, S-9, AROCLOR 1254, Method: STANDARD PLATE): active; positive | mutagenic call (Test System: E. COLI, Strain/Indicator: WP2 UVRA, Metabolic Activation: RAT, LIVER, S-9, Method: STANDARD PLATE): active; positive | mutagenic call (Test System: MOUSE LYMPHOMA, Strain/Indicator: L5178Y (TK+/TK-), Metabolic Activation: NONE, Method: SUSPENSION/PLATE): active; positive | mutagenic call (Test System: MOUSE LYMPHOMA, Strain/Indicator: L5178Y (TK+/TK-), Metabolic Activation: RAT, LIVER, S-9, AROCLOR 1254, Method: SUSPENSION/PLATE): active; positive | mutagenic call (Test System: UDS HUMAN CELLS, Strain/Indicator: THY INCORP (NON-S-PHASE), Metabolic Activation: NONE, Method: AUTORADIOGRAPHY): active; positive | mutagenic call (Test System: UDS HUMAN CELLS, Strain/Indicator: THY INCORP (NON-S-PHASE), Metabolic Activation: NONE, Method: LIQUID SCINTILLATION COUNTING): active; positive | mutagenic call (Test System: UDS HUMAN KERATINOCYTES, Strain/Indicator: THY INCORP, Metabolic Activation: NONE, Method: AUTORADIOGRAPHY): active; positive | mutagenic call (Test System: UDS HUMAN LYMPHOCYTES, Strain/Indicator: THY INCORP (NON-S-PHASE), Metabolic Activation: NONE, Method: LIQUID SCINTILLATION COUNTING): active; positive | mutagenic call (Test System: UDS MONKEY HEPATOCYTES, Strain/Indicator: THY INCORP, Metabolic Activation: AROCLOR 1254, Method: AUTORADIOGRAPHY): active; positive | mutagenic call (Test System: UDS MONKEY HEPATOCYTES, Strain/Indicator: THY INCORP, Metabolic Activation: NONE, Method: AUTORADIOGRAPHY): active; positive | mutagenic call (Test System: UDS RAT HEPATOCYTES, Strain/Indicator: BROMODEOXYURIDINE INCORP, Metabolic Activation: NONE, Method: FLOW CYTOMETRIC ANALYSIS): active; positive | mutagenic call (Test System: UDS RAT HEPATOCYTES, Strain/Indicator: THY INCORP, Metabolic Activation: NONE, Method: AUTORADIOGRAPHY): active; positive | mutagenic call (Test System: UDS RAT PACHYTENE SPERMATOCYTES, Strain/Indicator: THY INCORP, Metabolic Activation: NONE, Method: LIQUID SCINTILLATION COUNTING): active; positive | mutagenic call (Test System: UDS RODENT CELLS, Strain/Indicator: THY INCORP (NON-S-PHASE), Metabolic Activation: NONE, Method: AUTORADIOGRAPHY): active; positive | mutagenic call (Test System: UDS RODENT CELLS, Strain/Indicator: THY INCORP (NON-S-PHASE), Metabolic Activation: NONE, Method: LIQUID SCINTILLATION COUNTING): active; positive | mutagenic call (Test System: UDS RODENT HEPATOCYTES, Strain/Indicator: THY INCORP (NON-S-PHASE), Method: AUTORADIOGRAPHY): active; positive | mutagenic call (Test System: UDS RODENT HEPATOCYTES, Strain/Indicator: THY INCORP (NON-S-PHASE), Method: LIQUID SCINTILLATION COUNTING): active; positive | mutagenic call (Test System: UDS RODENT PRIMARY CELLS, Strain/Indicator: THY INCORP (NON-S-PHASE), Metabolic Activation: NONE, Method: LIQUID SCINTILLATION COUNTING): active; positive | mutagenic call (Test System: UDS, Strain/Indicator: HEPG2/THYMIDINE INCORPORATION, Metabolic Activation: NONE, Method: AUTORADIOGRAPHY): active; positive
